Data reported in US9249127B2 (Orion Corporation, priority 2012, dated 2016).
Like-named read-outs stand apart in the source and are kept apart here. Values belong to the compound of their own block, whether it stands above or below them.

Target: T1, alpha2A receptor (Homo sapiens, UniProt P08913)
T1 sequence (P08913 1-465): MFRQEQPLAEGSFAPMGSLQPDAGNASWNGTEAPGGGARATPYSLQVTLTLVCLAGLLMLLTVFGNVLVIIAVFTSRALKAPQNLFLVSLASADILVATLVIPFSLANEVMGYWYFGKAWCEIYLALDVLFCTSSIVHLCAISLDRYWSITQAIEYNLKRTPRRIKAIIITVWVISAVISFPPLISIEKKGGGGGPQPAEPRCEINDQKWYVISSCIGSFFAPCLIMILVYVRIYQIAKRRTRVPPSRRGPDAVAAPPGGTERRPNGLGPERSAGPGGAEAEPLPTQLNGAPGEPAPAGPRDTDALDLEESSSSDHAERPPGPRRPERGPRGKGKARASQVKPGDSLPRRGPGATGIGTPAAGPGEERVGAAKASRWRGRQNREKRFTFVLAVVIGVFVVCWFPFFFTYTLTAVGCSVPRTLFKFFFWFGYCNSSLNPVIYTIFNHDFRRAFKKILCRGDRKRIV
Test: Alpha2A agonistic activity in vitro
Format: cell-based

[1] = in vitro, read-out: Alpha2A Agonism pEC50 (converted)
[2] = Alpha2A Agonism pEC50, in vitro

SMILES: N#Cc1cccc2c1CCOC2C1=NCCN1 (stereo not shown) [Example 5, 1-(4,5-Dihydro-1H-imidazol-2-yl)isochroman-5-carbonitrile]
- Alpha2A Intrinsic Activity (in vitro): 0.59
- EC50 [1]: 1260 nM

SMILES: Cc1cccc2c1CC(CC(F)F)OC2C1=NCCN1 (stereo not shown) [Example 84, 2-(3-(2,2-Difluoroethyl)-5-methylisochroman-1-yl)-4,5-dihydro-1H-imidazole]
- EC50 [2]: 100 nM
- Alpha2A Intrinsic Activity (in vitro): 0.45

SMILES: Cc1cccc2c1CCSC2C1=NCCN1 (stereo not shown) [Example 64, 2-(5-Methylisothiochroman-1-yl)-4,5-dihydro-1H-imidazole]
- EC50 [2]: 79.4 nM
- Alpha2A Intrinsic Activity (in vitro): 0.59

SMILES: Cc1cccc2c1CC(C)SC2C1=NCCN1 (stereo not shown) [Example 62, 2-(3,5-Dimethylisothiochroman-1-yl)-4,5-dihydro-1H-imidazole]
- Alpha2A Intrinsic Activity (in vitro): 0.77

- Alpha2A Intrinsic Activity (in vitro): 0.69
- EC50 [1]: 15.8 nM
SMILES: COc1cccc2c1CCOC2C1=NCCN1 (single isomer, unassigned) [Example 97, 2-(5-methoxyoisochroman-1-yl)-4,5-dihydro-1H-Imidazole]

- Alpha2A Intrinsic Activity (in vitro): 0.25
SMILES: FC(F)(F)CC1Cc2c(Br)cccc2C(C2=NCCN2)O1 (single isomer, unassigned) [Example 68]

SMILES: C[C@@H]1Cc2c(Br)cccc2C(C2=NCCN2)O1 (stereo partly drawn) [Example 32, 2-((3R)-5-bromo-3-methylisochroman-1-yl)-4,5-dihydro-1H-imidazole]
- EC50 [2]: 1 nM
- Alpha2A Intrinsic Activity (in vitro): 0.92

SMILES: Clc1cccc2c1CCOC2C1=NCCN1 (single isomer, unassigned) [Example 100, 2-(5-chloroisochroman-1-yl)-4,5-dihydro-1H-imidazole]
- EC50 [2]: 3.98 nM
- Alpha2A Intrinsic Activity (in vitro): 0.91

- Alpha2A Intrinsic Activity (in vitro): 0.28
- EC50 [1]: 100 nM
SMILES: Cc1cccc2c1CC(CC(F)(F)F)OC2C1=NCCN1 (single isomer, unassigned) [Example 86, 2-((3)-5-methyl-3-(2,2,2-trifluoroethyl)isochroman-1-yl)-4,5-dihydro-1H-imidazole]

SMILES: COc1cccc2c1C[C@@H](C)OC2C1=NCCN1 (stereo partly drawn) [Example 44, 2-((3R)-5-methoxy-3-methylisochroman-1-yl)-4,5-dihydro-1H-imidazole]
- EC50 [2]: 7.94 nM
- Alpha2A Intrinsic Activity (in vitro): 0.83

SMILES: Clc1cccc2c1CCOC2C1=NCCN1 (single isomer, unassigned) [Example 92, 2-(5-chloroisochroman-1-yl)-4,5-dihydro-1H-imidazole]
- EC50 [2]: 31.6 nM
- Alpha2A Intrinsic Activity (in vitro): 0.78

SMILES: NC(=O)c1cccc2c1CCOC2C1=NCCN1 (stereo not shown) [Example 56, 1-(4,5-Dihydro-1H-imidazol-2-yl)isochroman-5-carboxamide]
- Alpha2A Intrinsic Activity (in vitro): 0.11
- EC50 [1]: 3160 nM

SMILES: CC[C@@H]1Cc2c(OC)cccc2C(C2=NCCN2)O1 (stereo partly drawn) [Example 91, 2-((3R)-3-ethyl-5-methoxyisochroman-1-yl)-4,5-dihydro-1H-imidazole]
- EC50 [2]: 39.8 nM
- Alpha2A Intrinsic Activity (in vitro): 0.51

SMILES: C#Cc1cccc2c1CCOC2C1=NCCN1 (stereo not shown) [Example 15, 2-(5-Ethynylisochroman-1-yl)-4,5-dihydro-1H-imidazole]
- EC50 [2]: 15.8 nM
- Alpha2A Intrinsic Activity (in vitro): 0.88

SMILES: CC1(C2=NCCN2)OCc2cccc3cccc1c23 (stereo not shown) [Example 98, 2-(1-Methyl-1,3-dihydrobenzo[de]isochromen-1-yl)-4,5-dihydro-1H-imidazole]
- EC50 [2]: 12.6 nM
- Alpha2A Intrinsic Activity (in vitro): 0.58

SMILES: CCc1cccc2c1CCOC2C1=NCCN1 (single isomer, unassigned) [Example 96]
- EC50 [2]: 20 nM
- Alpha2A Intrinsic Activity (in vitro): 0.66

SMILES: CC1(C2=NCCN2)OCCc2c(Br)cccc21 (single isomer, unassigned) [Example 106, 2-(5-bromo-1-methylisochroman-1-yl)-4,5-dihydro-1H-imidazole]
- Alpha2A Intrinsic Activity (in vitro): 0.64
- EC50 [1]: 158 nM

SMILES: Cc1cccc2c1CCOC2(C)C1=NCCN1 (single isomer, unassigned) [Example 21, 2-(1,5-Dimethylisochroman-1-yl)-4,5-dihydro-1H-imidazole]
- EC50 [2]: 50.1 nM
- Alpha2A Intrinsic Activity (in vitro): 0.73

SMILES: Cc1cc(Br)cc2c1CCOC2C1=NCCN1 (stereo not shown) [Example 60, 2-(7-Bromo-5-methylisochroman-1-yl)-4,5-dihydro-1H-imidazole]
- Alpha2A Intrinsic Activity (in vitro): 0.66
- EC50 [1]: 126 nM

SMILES: Cc1cccc2c1CCOC2(C)C1=NCCN1 (single isomer, unassigned) [Example 22, 2-(1,5-Dimethylisochroman-1-yl)-4,5-dihydro-1H-imidazole]
- Alpha2A Intrinsic Activity (in vitro): 0.33
- EC50 [1]: 1000 nM

SMILES: Brc1cccc2c1CCOC2C1=NCCN1 (single isomer, unassigned) [Example 101, 2-(5-bromoisochroman-1-yl)-4,5-dihydro-1H-imidazole]
- EC50 [2]: 3.16 nM
- Alpha2A Intrinsic Activity (in vitro): 0.89
